Data published in PubChem BioAssay (NCI).
Where “and” joins values, the source holds several entries; their conditions need not be identical. Identical values can stand only once.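 Results reflect a 48-hour exposure of cells in 96-well plates to compound at five concentrations. Here, GI50 denotes the concentration required for 50% inhibition of growth. Definition used: TGI = concentration required for complete inhibition of growth.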

Legend:
Test in all cases: NCI anticancer screen, dose series, 48 h
DLD-1 colon = test system: DLD-1 colon
DMS 273 small cell lung = test system: DMS 273 small cell lung
LOX IMVI melanoma = test system: LOX IMVI melanoma
LXFL 529 NSCLC = test system: LXFL 529 NSCLC
NCI-H522 lung = test system: NCI-H522 lung
SK-MEL-28 melanoma = test system: SK-MEL-28 melanoma
SK-OV-3 ovarian = test system: SK-OV-3 ovarian
XF 498 CNS = test system: XF 498 CNS
OVCAR-5 ovarian = test system: OVCAR-5 ovarian
RXF 393 renal = test system: RXF 393 renal
MDA-MB-435 = test system: MDA-MB-435
HOP-18 NSCLC = test system: HOP-18 NSCLC

SMILES	TGI (DLD-1 colon)	TGI (DMS 273 small cell lung)	TGI (LOX IMVI melanoma)	TGI (LXFL 529 NSCLC)	TGI (NCI-H522 lung)	TGI (SK-MEL-28 melanoma)	TGI (SK-OV-3 ovarian)	TGI (XF 498 CNS)	TGI (OVCAR-5 ovarian)	TGI (RXF 393 renal)	TGI (MDA-MB-435)	GI50 (LOX IMVI melanoma)	GI50 (MDA-MB-435)	GI50 (NCI-H522 lung)	GI50 (OVCAR-5 ovarian)	GI50 (RXF 393 renal)	GI50 (SK-MEL-28 melanoma)	GI50 (SK-OV-3 ovarian)	TGI (HOP-18 NSCLC)
COc1ccc(/C(C#N)=C2/O/C(=N/N)C(c3ccc(OC)c(OC)c3)C2=O)cc1OC (stereo unspecified)	> 100 µM	> 100 µM	> 100 µM	> 100 µM	> 100 µM	> 100 µM	> 100 µM	> 100 µM											
O=C(N[C@H]1CC2(C=C(I)C(=O)C(I)=C2)OC1=O)OCc1ccccc1	32.8 µM		30.6 µM	30.2 µM	26.2 µM	33.5 µM	> 100 µM	26.8 µM	33.2 µM	28.8 µM									
COc1cc(OC)c(OC)cc1/C=C\c1ccnc2ccccc12	> 100 µM		> 42.5 µM	> 100 µM	4.25 µM	> 100 µM	9.68 µM		> 100 µM	5.28 µM	534 nM								
C#CCN(CCCOc1ccc(Cl)cc1Cl)CCCSC(=O)CCCCCN1/C(=C\C=C2/CCCC(/C=C/C3=[N+](CCCCCC(=O)[O-])c4ccccc4C3(C)C)=C2Cl)C(C)(C)c2ccccc21			2.83 µM		3.34 µM	2.43 µM	8.86 µM		3.92 µM	3.37 µM	3150 nM	1460 nM	1460 nM	1160 nM	1780 nM	1660 nM	708 nM	2970 nM	
Clc1cc(Cl)cc(Nc2ccc3c(OCCCN4CCOCC4)cccc3n2)c1			3.24 µM		3.57 µM	3.3 µM	8.55 µM		4.37 µM	5.14 µM	3710 nM	1720 nM	1800 nM	1820 nM	1830 nM	2260 nM	1650 nM	2780 nM	
Cc1cccc(NC(=O)CSc2nnc(-c3ccc(N=Cc4ccc(Cl)cc4)cc3)o2)c1		> 100 µM	> 100 µM	> 100 µM	> 100 µM	> 100 µM	> 100 µM	> 100 µM		> 100 µM									> 100 µM
CCOc1ccccc1NC(=O)C1=C(C)NC(C)=C(C(=O)Nc2ccccc2OCC)C1c1ccc2c(c1)OCO2	> 100 µM		> 100 µM	> 100 µM	29.8 µM	> 100 µM	> 100 µM	49.6 µM	> 100 µM	> 100 µM									
CC1(C)O[C@@H](CCl)C[C@@H](C#N)O1	> 100 µM	> 100 µM	> 100 µM		> 100 µM	> 100 µM	> 100 µM		> 100 µM	> 100 µM									> 100 µM
C=C1CCC2C(C)(CO)C(O)CCC2(C)C1C/C=C1\C(=O)OCC1O (stereo unspecified)			30.4 µM		28.4 µM	27.3 µM	66.7 µM		31.1 µM	33.8 µM	22900 nM								
COc1ccccc1CNCCCN1C(=O)c2ccc3c4c(ccc(c24)C1=O)C(=O)N(CCCNCCCCN)C3=O			0.557 µM		0.367 µM	1.54 µM	2.86 µM		7.97 µM	1.41 µM	397 nM	202 nM	184 nM	182 nM	1060 nM	340 nM	425 nM	495 nM	
Cc1cc2nc3c(C(OC4OC(CO)C(O)C(O)C4O)C(O)CO)nn(-c4ccc(F)cc4)c3nc2cc1C (stereo unspecified)	> 100 µM		> 100 µM	> 100 µM	> 100 µM	> 100 µM	> 100 µM	> 100 µM	> 100 µM	> 100 µM									
COC(=O)C1C(=O)NC2(C)CC1c1ccccc1O2 (stereo unspecified)	> 100 µM	> 100 µM	> 100 µM	> 100 µM	> 100 µM	> 100 µM	> 100 µM	> 100 µM	> 100 µM	> 100 µM									
O=C(Cn1ccnc1[N+](=O)[O-])NCc1ccc(F)cc1		> 100 µM	> 100 µM	> 100 µM	> 100 µM	> 100 µM	> 100 µM	> 100 µM	> 100 µM	> 100 µM									> 100 µM
O=C1Cc2c([nH]c3ccccc23)-c2cc(Br)ccc2N1	> 100 µM	> 100 µM	> 100 µM	> 100 µM	> 100 µM	> 100 µM	> 100 µM		> 100 µM	> 100 µM									> 100 µM
CNc1ccc(CSc2ccc(C)cc2)cc1			> 100 µM		23.7 µM	> 100 µM	> 100 µM		> 100 µM	87.2 µM	> 100000 nM	14500 nM	13100 nM	3620 nM	71300 nM	11400 nM	20300 nM	> 100000 nM	
COc1ccc(-c2nc3sccn3c2/C=C/C(=O)c2cc(OC)c(OC)c(OC)c2)cc1			6.59 µM		> 22.2 µM	51.8 µM	24.6 µM		> 23.9 µM	> 100 µM	> 100000 nM	2110 nM	2850 nM	4160 nM	3680 nM	3090 nM	4050 nM	3130 nM	
CC(C)(C)c1cnc(CSc2cnc(NC(=O)C3CCNCC3)s2)o1			14.5 µM and > 10 µM		0.494 µM and 0.565 µM	0.523 µM and 1.06 µM	> 100 µM		> 100 µM	0.354 µM and 0.509 µM	905 nM and 1070 nM	218 nM and 131 nM	189 nM and 232 nM	189 nM and 175 nM	241 nM and 124 nM	124 nM and 157 nM	166 nM and 221 nM	475 nM and 569 nM	
COc1cc2ccc(CC(=O)O)cc2cc1OC	> 100 µM	> 100 µM		> 100 µM	> 100 µM	> 100 µM	> 100 µM			> 100 µM									> 100 µM
CCOC(=O)c1cnc2c(ccc3ncccc32)c1OCC	> 100 µM	> 100 µM	> 100 µM	> 100 µM	> 100 µM	> 100 µM	> 100 µM		> 100 µM	> 100 µM									> 100 µM
